Experimental data reported in ChEMBL document CHEMBL4261580, “Novel antitumor compound optimized from natural saponin Albiziabioside A induced caspase-dependent apoptosis and ferroptosis as a p53 activator through the mitochondrial pathway” (Eur J Med Chem, 2018).
The source made the active and inactive calls. The rule behind the calls is not given here.

Experiments:
HCT-116 [1] = assay: Antiproliferative activity against human HCT116 cells after 72 hrs by MTT assay; format: functional, cell-based; settings: HCT-116, 72 h
HepG2 = assay: Antiproliferative activity against human HepG2 cells after 72 hrs by MTT assay; format: functional, cell-based; settings: HepG2, 72 h
MCF7 = assay: Antiproliferative activity against human MCF7 cells after 72 hrs by MTT assay; format: functional, cell-based; settings: MCF7, 72 h
[2] = Antiproliferative activity against human CCD-841 cells after 72 hrs by MTT assay; format: cell-based; settings: CCD-841, 72 h
Bel-7402 = assay: Antiproliferative activity against human Bel7402 cells after 72 hrs by MTT assay; format: functional, cell-based; settings: Bel-7402, 72 h
[3] = Antiproliferative activity against adriamycin-resistant human Bel7402/ADR cells after 72 hrs by MTT assay; format: functional; settings: Bel-7402, 72 h
[4] = Antiproliferative activity against taxol-resistant human HCT8/T cells after 72 hrs by MTT assay; format: functional; settings: HCT-8, 72 h
HCT-116 [5] = assay: Induction of apoptosis in human HCT116 cells assessed as cell shrinkage at 0.31 to 5 uM after 24 hrs by DAPI staining-based fluorescence microscopic method; format: functional
HCT-116 [6] = assay: Induction of apoptosis in human HCT116 cells assessed as formation of apoptotic bodies at 0.31 to 5 uM after 24 hrs by DAPI staining-based fluorescence microscopic method; format: functional, cell-based
HCT-116 [7] = assay: Induction of apoptosis in human HCT116 cells assessed as necrotic cells at 0.31 uM after 72 hrs by Annexin V-FITC/propidium iodide staining-based flow cytometric analysis (reference value: 0.76%); format: functional
HCT-116 [8] = assay: Induction of apoptosis in human HCT116 cells assessed as early apoptotic cells at 0.31 uM after 72 hrs by Annexin V-FITC/propidium iodide staining-based flow cytometric analysis (reference value: 5.30%); format: functional
HCT-116 [9] = assay: Induction of apoptosis in human HCT116 cells assessed as necrotic cells at 1.25 uM after 72 hrs by Annexin V-FITC/propidium iodide staining-based flow cytometric analysis (reference value: 0.76%); format: functional
HCT-116 [10] = assay: Induction of apoptosis in human HCT116 cells assessed as early apoptotic cells at 1.25 uM after 72 hrs by Annexin V-FITC/propidium iodide staining-based flow cytometric analysis (reference value: 5.30%); format: functional
HCT-116 [11] = assay: Induction of apoptosis in human HCT116 cells assessed as viable cells at 1.25 uM after 72 hrs by Annexin V-FITC/propidium iodide staining-based flow cytometric analysis (reference value: 92.86%); format: functional; settings: HCT-116, 72 h, read-out: Activity
HCT-116 [12] = assay: Disruption of mitochondrial membrane potential in human HCT116 cells assessed as collapse of mitochondrial membrane potential at 0.31 uM after 72 hrs by JC1 staining-based flow cytometry method (reference value: […]); format: functional
HCT-116 [13] = assay: Disruption of mitochondrial membrane potential in human HCT116 cells assessed as intact mitochondrial membrane at 5 uM after 72 hrs by JC1 staining-based flow cytometry method (reference value: 0.33%); format: functional
HCT-116 [14] = assay: Induction of intracellular ROS generation in human HCT116 cells after 72 hrs by DCF-DA-dye based fluorescence microscopy; format: functional, cell-based
[15] = biological target: Cellular tumor antigen p53 (Homo sapiens) (UniProt P04637); assay: Activation of p53 in human HCT116 cells assessed as downregulation of Bcl2 expression up to 5 uM after 48 hrs by Western blot analysis; format: cell-based
[16] = biological target: Cellular tumor antigen p53 (Homo sapiens) (UniProt P04637); assay: Activation of p53 in human HCT116 cells assessed as increase in cytochrome-c expression up to 5 uM after 48 hrs by Western blot analysis; format: cell-based
[17] = biological target: Cellular tumor antigen p53 (Homo sapiens) (UniProt P04637); assay: Activation of p53 in human HCT116 cells assessed as increase in caspase-9 level up to 5 uM after 48 hrs by Western blot analysis; format: cell-based
HCT-116 [18] = assay: Cytotoxicity against human HCT116 cells transfected with p53-siRNA up to 5 uM after 72 hrs by MTT assay; format: functional, cell-based
HCT-116 [19] = assay: Cytotoxicity in human HCT116 cells pretreated with Fe3+ followed by compound addition up to 5 uM measured after 72 hrs by MTT assay; format: functional, cell-based
HCT-116 [20] = assay: Cytotoxicity against human HCT116 cells pretreated with Na+ followed by compound addition up to 5 uM measured after 72 hrs by MTT assay; format: functional, cell-based
HCT-116 [21] = assay: Cytotoxicity against human HCT116 cells pretreated with K+ followed by compound addition up to 5 uM measured after 72 hrs by MTT assay; format: functional, cell-based
HCT-116 [22] = assay: Cytotoxicity against human HCT116 cells pretreated with Ca2+ followed by compound addition up to 5 uM measured after 72 hrs by MTT assay; format: functional, cell-based
HCT-116 [23] = assay: Induction of ferroptosis in human HCT116 cells assessed as downregulation of GPX4 expression after 48 hrs by Western blot analysis; format: functional, cell-based
HCT-116 [24] = assay: Antitumor activity against human HCT116 cells xenografted in BALB/c nude mouse assessed as decrease in tumor size at 20 mg/kg, iv administered once per day for 14 days and measured every 2 days; format: functional; parameters: scale not given: the % may be the effect or the level left
Mus musculus [25] = assay: Toxicity in BALB/c nude mouse xenografted with human HCT116 cells assessed as abnormality in spleen at 10 to 20 mg/kg, iv administered once per day by hematoxylin and eosin staining-based microscopic method; format: organism-based; settings: in vivo
Mus musculus [26] = assay: Toxicity in BALB/c nude mouse xenografted with human HCT116 cells assessed as abnormality in kidney at 10 to 20 mg/kg, iv administered once per day by hematoxylin and eosin staining-based microscopic method; format: organism-based; settings: in vivo
PC-3 = assay: Antiproliferative activity against p53 deficient human PC3 cells at 0.31 to 5 uM after 72 hrs by MTT assay; format: functional, cell-based

Cellular tumor antigen p53 (Homo sapiens), sequence (P04637 whole entry, looked up): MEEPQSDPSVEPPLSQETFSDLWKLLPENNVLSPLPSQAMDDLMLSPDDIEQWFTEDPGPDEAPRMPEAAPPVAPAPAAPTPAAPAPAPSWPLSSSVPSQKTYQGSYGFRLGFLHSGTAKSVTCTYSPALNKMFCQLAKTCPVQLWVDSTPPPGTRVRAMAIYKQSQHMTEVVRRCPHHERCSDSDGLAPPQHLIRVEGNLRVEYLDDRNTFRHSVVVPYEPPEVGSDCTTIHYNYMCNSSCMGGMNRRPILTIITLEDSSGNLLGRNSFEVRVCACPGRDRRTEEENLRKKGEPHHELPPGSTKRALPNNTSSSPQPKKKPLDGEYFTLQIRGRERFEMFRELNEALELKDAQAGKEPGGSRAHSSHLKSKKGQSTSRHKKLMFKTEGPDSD

Which IC50 (HCT-116 [1]) does the source give for `CC(=O)N[C@H]1[C@H](O[C@H]2CC[C@]3(C)[C@H]4CC=C5[C@@H]6CC(C)(C)CC[C@]6(C(=O)OCc6cn(-c7cccc(C(C)=O)c7)nn6)CC[C@@]5(C)[C@]4(C)CC[C@H]3C2(C)C)O[C@H](CO[C@@H]2OC[C@H](O)[C@H](O)[C@@H]2O)[C@@H](O)[C@@H]1O` here?
The IC50 was 5.19 µM.

And the IC50 (HepG2)?
The IC50 was 6.5 µM.

What about the IC50 (MCF7) of the same compound?
Its IC50 is 10.5 µM.

What about the IC50 [2] of the same compound?
The IC50 was 27.8 µM.

And the IC50 (Bel-7402)?
The IC50 was 5.21 µM.

What about the IC50 [3] of the same compound?
The IC50 was 5.83 µM.

What about the IC50 [4] of the same compound?
The IC50 was 6.05 µM.

And the Activity (HCT-116 [5])?
Its Activity is “Active”.

And the Activity (HCT-116 [6])?
Its Activity is “Active”.

And the Activity (HCT-116 [7])?
The Activity was 2.62%.

What about the Activity (HCT-116 [8]) of the same compound?
Its Activity is 5.94%.

What about the Activity (HCT-116 [9]) of the same compound?
Its Activity is 5.35%.

What about the Activity (HCT-116 [10]) of the same compound?
The Activity was 3.42%.

And the viability at 1.25 µM (HCT-116 [11])?
The viability at 1.25 µM was 65.1%.

What about the Activity (HCT-116 [12]) of the same compound?
Its Activity is 89.03%.

What about the Activity (HCT-116 [13]) of the same compound?
The Activity was 40.13%.

What about the Activity (HCT-116 [14]) of the same compound?
The Activity was “Dose-dependent effect”.

And the Activity [15]?
The Activity was “Active”.

And the Activity [16]?
Its Activity is “Active”.

What about the Activity [17] of the same compound?
The Activity was “Active”.

What about the Activity (HCT-116 [18]) of the same compound?
The Activity was “inactive”.

What about the Activity (HCT-116 [19]) of the same compound?
The Activity was “Active”.

What about the Activity (HCT-116 [20]) of the same compound?
Its Activity is “Active”.

And the Activity (HCT-116 [21])?
The Activity was “Active”.

And the Activity (HCT-116 [22])?
The Activity was “Active”.

And the Activity (HCT-116 [23])?
Its Activity is “Dose-dependent effect”.

What about the Activity (HCT-116 [24]) of the same compound?
Its Activity is 71.8%.

And the Activity (Mus musculus [25])?
The Activity was “Non-Toxic”.

And the Activity (Mus musculus [26])?
The Activity was “Non-Toxic”.

What about the Activity (PC-3) of the same compound?
The Activity was “inactive”.
